In this test the test system is HCV pseudoparticles, genotype 1a HCV E1 and E2 envelope (H77C isolate). Description: HCV pseudoparticle infection assay (luciferase reporter, entry into Huh7 cells). The settings on record: Hepatitis C virus, Huh-7, 48 h. It counts as cell-based.
The mark [1] stands for this setting: read-out: EC50 (nM) 1a (H77C), HCV pseudoparticles genotype 1a (H77C), Huh7 cells, luciferase measured 2 days after infection, average of duplicates.
Setting [2] is: read-out: EC50 (nM) 1a (H77C), HCV pseudoparticles genotype 1a (H77C), Huh7 cells, luciferase measured 2 days after infection, class symbols.

Where two headings read alike, the source gives them in different places.

For the compound `CC(C)(CNC(=O)C(N)=O)CNC(=O)c1ccc(Nc2cc(NCc3ccc(Cl)cc3)nc(OCC(F)(F)F)n2)nc1` [Example 1001], the EC50 is, setting by setting: under setting [1], 1.47 nM; under setting [2], 0.01 to 10 nM.

For `CC(C)(CNC(=O)C(=O)Nc1ccccc1)CNC(=O)c1ccc(Nc2cc(NCc3ccc(Cl)cc3)nc(OCC(F)(F)F)n2)nc1` [Example 1002], the EC50 under setting [2] fell in the range of 0.01 to 10 nM.

Consider `Cc1ccc(NC(=O)C(=O)NCC(C)(C)CNC(=O)c2ccc(Nc3cc(NCc4ccc(Cl)cc4)nc(OCC(F)(F)F)n3)nc2)cc1` [Example 1003], for which the EC50 is 0.214 nM under setting [1] and 0.01 to 10 nM under setting [2].

For the compound `CC(C)CNC(=O)C(=O)NCC(C)(C)CNC(=O)c1ccc(Nc2cc(NCc3ccc(Cl)cc3)nc(OCC(F)(F)F)n2)nc1` [Example 1004], under setting [2], the EC50 fell in the range of 0.01 to 10 nM.

As to `CC(C)(CNC(=O)C(=O)NC1CCCCC1)CNC(=O)c1ccc(Nc2cc(NCc3ccc(Cl)cc3)nc(OCC(F)(F)F)n2)nc1` [Example 1005], the EC50 under setting [2] lay within 0.01 to 10 nM.

With `CN(C)C(=O)C(=O)NCC(C)(C)CNC(=O)c1ccc(Nc2cc(NCc3ccc(Cl)cc3)nc(OCC(F)(F)F)n2)nc1` [Example 1006], the EC50 under setting [2] was 10 to 1000 nM.

On to `CC(C)(CNC(=O)C(=O)N1CCc2ccccc2C1)CNC(=O)c1ccc(Nc2cc(NCc3ccc(Cl)cc3)nc(OCC(F)(F)F)n2)nc1` [Example 1007], for which, under setting [2], the EC50 lay within 0.01 to 10 nM.

With `CC(C)(CNC(=O)C(=O)Nc1ccc(F)cc1F)CNC(=O)c1ccc(Nc2cc(NCc3ccc(Cl)cc3)nc(OCC(F)(F)F)n2)nc1` [Example 1008], the half-maximal effective concentration (EC50) under setting [2] fell in the range of 0.01 to 10 nM.

In the case of `CNC(=O)C(=O)NCC(C)(C)CNC(=O)c1ccc(Nc2cc(NCc3ccc(Cl)cc3)nc(OCC(F)(F)F)n2)nc1` [Example 1009], under setting [2], the EC50 fell in the range of 0.01 to 10 nM.

Regarding `CC(C)(CNC(=O)C(=O)N1CCCCC1)CNC(=O)c1ccc(Nc2cc(NCc3ccc(Cl)cc3)nc(OCC(F)(F)F)n2)nc1` [Example 1010], the EC50 under setting [2] is 10 to 1000 nM.

In the case of `Cc1nnc(NC(=O)C(=O)NCC(C)(C)CNC(=O)c2ccc(Nc3cc(NCc4ccc(Cl)cc4)nc(OCC(F)(F)F)n3)nc2)s1` [Example 1011], the EC50 under setting [2] lay within 10 to 1000 nM.

As to `CC(C)(CNC(=O)C(=O)Nc1ccc(F)cc1)CNC(=O)c1ccc(Nc2cc(NCc3ccc(Cl)cc3)nc(OCC(F)(F)F)n2)nc1` [Example 1012], the EC50 under setting [1] was determined as 0.482 nM and the EC50 under setting [2] is 0.01 to 10 nM.

As for `CC(C)(CNC(=O)C(=O)Nc1nccs1)CNC(=O)c1ccc(Nc2cc(NCc3ccc(Cl)cc3)nc(OCC(F)(F)F)n2)nc1` [Example 1013], the EC50 under setting [2] was 0.01 to 10 nM.

In the case of `CC(C)(CNC(=O)C(=O)Nc1cccc(F)c1)CNC(=O)c1ccc(Nc2cc(NCc3ccc(Cl)cc3)nc(OCC(F)(F)F)n2)nc1` [Example 1014], the EC50 under setting [2] was in the range of 0.01 to 10 nM.

Take `Cc1cc(NC(=O)C(=O)NCC(C)(C)CNC(=O)c2ccc(Nc3cc(NCc4ccc(Cl)cc4)nc(OCC(F)(F)F)n3)nc2)no1` [Example 1015]: the EC50 under setting [1] stood at 1.31 nM and the EC50 under setting [2] was in the range of 0.01 to 10 nM.

Consider `CC(C)(CNC(=O)C(=O)Nc1nncs1)CNC(=O)c1ccc(Nc2cc(NCc3ccc(Cl)cc3)nc(OCC(F)(F)F)n2)nc1` [Example 1016], for which the EC50 reads like this: under setting [1], 56.8 nM; under setting [2], 10 to 1000 nM.

As to `CC(C)(CNC(=O)C(=O)N1CCOCC1)CNC(=O)c1ccc(Nc2cc(NCc3ccc(Cl)cc3)nc(OCC(F)(F)F)n2)nc1` [Example 1017], the half-maximal effective concentration (EC50) reads like this: under setting [1], 26.8 nM; under setting [2], 10 to 1000 nM.

As to `CC(C)(CNC(=O)C(=O)NCc1ccc(F)cc1)CNC(=O)c1ccc(Nc2cc(NCc3ccc(Cl)cc3)nc(OCC(F)(F)F)n2)nc1` [Example 1018], the half-maximal effective concentration (EC50) under setting [2] lay within 0.01 to 10 nM.

As to `CC(C)(CNC(=O)C(=O)Nc1cc(F)cc(F)c1)CNC(=O)c1ccc(Nc2cc(NCc3ccc(Cl)cc3)nc(OCC(F)(F)F)n2)nc1` [Example 1019], the EC50 under setting [2] is 10 to 1000 nM.

As to `CC(C)(CNC(=O)C(=O)Nc1ccc(Cl)cc1)CNC(=O)c1ccc(Nc2cc(NCc3ccc(Cl)cc3)nc(OCC(F)(F)F)n2)nc1` [Example 1020], under setting [2], the concentration for a half-maximal effect (EC50) is 0.01 to 10 nM.

As a reminder, the EC50 is the midpoint of the concentration-response curve.

The values are drawn from patent publication US9656992B2, “Pyrimidine compounds for the treatment of hepatitis C” (priority 2013, dated 2017).
